Source: US20080188518A1 (priority 2003, published 2008)

Target: α7 nAChR subtype (Rattus norvegicus, UniProt Q05941)
Assay type: binding
Conditions: read-out: KD of radioligand (saturation curves, one site model)

Chain of α7 nAChR subtype (Q05941 23-502 limits assumed): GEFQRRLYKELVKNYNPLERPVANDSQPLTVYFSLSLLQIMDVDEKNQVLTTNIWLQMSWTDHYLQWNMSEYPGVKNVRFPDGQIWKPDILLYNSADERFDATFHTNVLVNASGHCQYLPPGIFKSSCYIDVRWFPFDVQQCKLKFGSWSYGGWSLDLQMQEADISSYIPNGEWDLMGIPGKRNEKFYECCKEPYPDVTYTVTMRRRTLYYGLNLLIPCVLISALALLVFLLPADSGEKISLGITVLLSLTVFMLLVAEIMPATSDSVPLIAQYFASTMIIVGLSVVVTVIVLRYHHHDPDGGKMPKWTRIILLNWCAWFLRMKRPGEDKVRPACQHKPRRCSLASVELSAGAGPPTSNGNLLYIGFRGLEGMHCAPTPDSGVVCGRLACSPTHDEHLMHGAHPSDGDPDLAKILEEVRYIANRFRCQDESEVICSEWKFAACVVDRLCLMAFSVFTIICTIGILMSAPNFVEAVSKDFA

Substance: 125I-α-Bungarotoxin [[^125I]-α-BTX]
- Kd: 1.67 nM
